Series [1] relates to ATF4. Put plainly: ATF4 expression in MEF cells (western blotting, RT-qPCR of Atf4). As to conditions: for ATF4 induction in cystine-starved cells: cystine deprivation. Type of series: cell-based, mouse. How it is done: For cystine and methionine deprivation, the experiment was carried out by incubating cells in DMEM, high glucose, no glutamine, no methionine, no cystine (Thermo Fisher: 21013024) with 10% dialyzed FBS (Sigma Aldrich: F0392). For leucine, histidine, and arginine deprivation, the experiment was carried out by incubating cells in DMEM, high glucose, no arginine, no histidine, no leucine, respectively, (custom prepared by Gibco/Invitrogen) with 10% dialyzed FBS (Sigma Aldrich: F0392). For full amino acid starvation, the experiment was carried out by incubating cells in HBSS buffer (Lonza) with 10% dialyzed FBS (Sigma Aldrich: F0392). Samples were collected at indicated experimental time points.
Following experimental conditions, total RNA was isolated by TRIzol reagent (Invitrogen) and reverse transcription was performed using High-Capacity cDNA Reverse Transcription Kit (Invitrogen). Real-time PCR analysis was conducted using Power SYBR Green PCR Master Mix (Applied Biosystems) and data was generated using a LightCycler 480 Real-Time PCR System (Roche Applied Science). qPCR oligo sequences are listed in Table 4.
(§1) Cells were washed with PBS (Gibco) and then lysed on ice using cell lysis buffer (50 mM Tris [pH7.5], 150 mM NaCl, 1 mM EDTA, 1% Triton X-100, 2 U/ml DNase and protease inhibitor cocktail tablet). The lysates were incubated on ice for 30 min and spun down at 10,000 rpm for 3 mins to collect supernatant. Collected supernatant was measured by protein assay (Bio-Rad: 500-0112) to quantify the protein concentration. Equal amounts of proteins across samples were mixed with SDS-PAGE sample buffer (50 mM Tris [pH6.8], 100 mM dithiothreitol, 2% SDS, 0.1% bromophenol blue, 10% glycerol) and heated for 9 mins at 95° C. Denatured proteins were separated on SDS-PAGE and transferred to PVDF membranes (Fisher). Membranes were blocked in TBS containing 5% non-fat milk and 0.1% Tween-20 for 1 hr. Phospho-proteins were blocked in TBS containing 5% BSA and 0.1% Tween-20 for 1 hr. Blocking was followed by incubation with primary antibodies overnight at 4° C. Membranes were washed using TBST followed by subsequent incubation using horseradish peroxidase-coupled secondary antibodies at room temperature for 1 hr. Immunoblots were washed again using TBST and visualized using enhanced chemiluminescence (ECL-Plus, GE Healthcare).
(In general: A western blot detects proteins with antibodies after separation by electrophoresis.)

In series [2] the test system is Atf4 promoter. The series is described as follows: Atf4 promoter-driven Fluc reporter assay in MEF cells. The series is classed as cell-based, mouse. As to conditions: BafilomycinA 50 nM 8 hrs with or without cystine deprivation. Here is the method: (§2) Firefly luciferase reporters were co-transfected with a Renilla reporter plasmid into MEF cells or CTNS knockdown cells for 4 hrs. Transfected cells were treated with amino acid starvation and/or compound treatment at indicated timepoints. Firefly and Renilla luciferase activities were measured using Dual-Luciferase Reporter Assay System (Promega). Relative values of firefly luciferase activities were normalized to Renilla luciferase control.

Series [3] has as its system NRF2. Put plainly: ARE-driven Fluc reporter assay (NRF2 activity) in MEF cells. The note with it: cystine starvation 8 hr, BafilomycinA 50 nM or ConcanamycinA 100 nM. Type of series: cell-based, mouse. Here is the method: as §2
The subject of series [4] is MEF cells. Put plainly: Cell fractionation and western blotting of MEF cells transfected with CysRx. The note with it: BafilomycinA 50 nM for 12 hrs. The series is classed as cell-based, mouse. How it is done: as §1
MEF cells were grown in four 15 cm dishes until 80% confluent (˜3×10^8 cells) followed by washing twice with ice-cold PBS. […]

Series [5] concerns MEF cells. Put plainly: Lipid peroxidation measurement (C11-BODIPY, flow cytometry) in MEF cells. Type of series: cell-based, mouse. The note with it: for lipid oxidation in cystine-starved cells (C11-BODIPY): cystine deprivation 18 hrs, BafA1 50 nM or ConA. Here is the method:
Cells were plated in 6-well dishes and followed by indicated treatments. After treatment, cells were incubated with fresh medium containing 2 μM BODIPY 581/591 C11 dye (Invitrogen: D3861) for 15 min. Cells were next collected and washed twice with ice-cold PBS followed by fluorescence-activated cell sorting (FACS) analysis using Thermo Fisher Attune NxT. Fluorescence captured during analysis was gated and plotted using FCS Express 7.
For orientation: Flow cytometry measures light scatter and fluorescence of single cells or particles in a stream.

For series [6], the system named is MEF cells. The series is described as follows: Cell viability assay (ferroptosis) in MEF cells. As to conditions: for cell death under cystine restriction (cell viability): Necrostatin 5 μM, Ferrostatin 1 μM. Type of series: cell-based, mouse. How it is done:
Cells were seeded into 96-well plates at 3,000 cells per well. After 16 hr, cells were subject to conditions of the indicated experiments. Cells were incubated for 24 hr in their experimental conditions and cell viability was measured using the CellTiter-Blue viability assay (Promega) following the manufacturer's instructions. Relative cell viability in the presence of starvation and/or compounds was normalized to the vehicle-treated controls after background subtraction.

Series [7] relates to MEF cells. The series is described as follows: Intracellular cysteine and cystine measurement in MEF cells (HPLC). Type of series: cell-based, mouse.
Description: Cells were grown on 100 mm dishes until 80-90% confluent. Cells were lysed on ice in lysis buffer (50 mM Tris [pH7.5], 150 mM NaCl, 1 mM EDTA, 1% Triton X-100, 2 U/ml DNase and protease inhibitor cocktail tablet), followed by centrifugation at 10,000 rpm for 8 min at 4° C. The supernatant was collected and 100 μL of sample was mixed with 10 μL TCEP (50 mM in borate buffer [pH 7.4]) (Sigma Aldrich) in a vial and incubated at 25° C. for 10 min.
90 μL of a solution containing 1% TCA and 1 mM EDTA was then added. The total solution was centrifuged for 10 min at 10,000 g at 4° C. 100 μL of the obtained supernatant, 20 μL of 10 mM CNBF solution (4-chloro-3,5-dinitrobenzotrifluoride [Sigma Aldrich: 197017]), 20 μL of methanol, and 50 μL of borate buffer (0.2 M [pH 8.0])) were mixed and incubated at 25° C. for 20 min. Derivatization was terminated with 10 μL of 2M HCl followed by HPLC analysis (see below).
Cells were grown on 100 mm dishes until 80-90% confluent. Cells were lysed on ice in lysis buffer (50 mM Tris [pH7.5], 150 mM NaCl, 1 mM EDTA, 1% Triton X-100, 2 U/ml DNase and protease inhibitor cocktail tablet). 100 μL of sample was mixed with 100 μL of 6%5-Sulfosalicylic Acid Dyhydrate solution (Sigma: S3147), followed by centrifugation at 3,000 g for 15 min at 4° C. The supernatant was collected and 25 μL of freshly made derivatizing solution was added. Samples sat at room temperature for 20 mins, followed by rotary evaporation. Dried material was dissolved in 150 μL of phase A solution followed by HPLC analysis (see below).
All resulting solutions for cysteine, glutathione, and cystine were filtered through a 0.22 μm filter membrane (Millipore Corporation, Belfast, MA, USA) and injected into a chromatographic system. High performance liquid chromatography (HPLC) was performed using a LC-20AT pump with a SPD-20AV UV-vis detector monitored at 270 and 220 nm (Shimadzu, Japan) equip with an Ultra Aqueous C18 column (100 Å, 5 μm, 250 mm×4.6 mm; Restek, USA) at a flow rate of 1 mL/min with a mobile phase containing 0.1% trifluoroacetic acid (TFA) in H2O or acetonitrile. Values were normalized to protein concentration by Bradford assay.
Series [8] concerns UMRC6 tumors. Put plainly: CysRx treatment of xenografted UMRC6 tumors in mice (tumor growth). Type of series: in vivo, mouse. As to conditions: IKE 10 mg/kg intraperitoneal every other day, 25 days. How it is done:
(§3) Previously established UMRC6 tumors were immediately excised from CO2 euthanized mice and minced using a surgical 10 blade. Approximately […] portions of tumor were bilaterally implanted into 6-8-week-old NSG mice. Animals were monitored for tumor growth and randomized into treatment groups when tumors reached 150-200 mm^3 in size. IKE/vehicle treated animals received intraperitoneal injections every other day (10 mg/kg). CysRx-TT3 treatment was conducted via weekly intratumoral (IT) injections (100 μL) for three weeks. Tumors for IT injections were demarcated into four quadrants and an equal volume (25 μL) of CysRx-TT3 was injected into each quadrant. HiBit-TT3 was injected into the other flank as control. Mice were monitored for tumor growth three times per week using digital calipers. Health and body condition were also monitored concurrently. Animals were sacrificed by CO2 euthanasia (3.5 L/min) one week after final administration or when the body condition started to deteriorate. Tumors were excised from the flank using a surgical 10 blade, weighed and either flash frozen or fixed in 4% PFA.
Magnetic resonance imaging (MRI) of mice was conducted using a 1T M3 compact MRI from Aspect Imaging Ltd. Mice were anesthetized using 2.5% isoflurane and placed onto the specimen arm, coil was then placed around the subject and fixed in place. […]

A short description of series [9]: Body weight of tumor-bearing mice. The series is classed as in vivo, mouse. As to conditions: mice with UMRC6 tumors; IKE 10 mg/kg/2d intraperitoneal; CysRx-TT3 intratumoral. How it is done: as §3
Where [10] appears, read: MEF cells, cystine deprivation 24 hrs, BafilomycinA 50 nM or ConcanamycinA 100 nM.
Where [11] appears, read: BafilomycinA 50 nM for 12 hrs, normalized to protein.
The mark [12] stands for this setting: MEF cells, 24 hrs cystine deprivation, Z-VAD 20 μM.

The structures appear in SMILES notation. Where a SMILES comes first, the peptide text is derived from it. The star is where a group is joined. Cbz = O=C(OCc1ccccc1)*; CH2F = FC*

As to `CCCCS(=N)(=O)CCC(N)C(=O)O` (stereo not drawn) [BSO, buthionine sulfoximine], in [1] (MEF cells, BSO 10 μM, 8 hrs), the ATF4 expression entry is on record as “induced”.
Consider `CO/C1=C\C(C)=C\[C@@H](C)[C@@H](O)[C@@H](C)C/C(C)=C/C=C/[C@H](OC)[C@@H]([C@@H](C)[C@@H](O)[C@H](C)[C@@]2(O)C[C@@H](O)[C@H](C)[C@@H](C(C)C)O2)OC1=O` [BafA1, bafilomycin A1], for which the “ATF4 induction in cystine-starved cells” value in series [1] (MEF cells, BafilomycinA 50 nM 8 hrs, ConcanamycinA 100 nM 12 hrs) was “greatly potentiated”. For the same molecule, the “Atf4 promoter-driven Fluc activity (normalized to Renilla)” value in series [2] is given as “transcriptional upregulation”. Also, the “NRF2 activation (ARE Fluc reporter)” value in series [3] is listed as “prevented”. The “CysRx level (western blotting)” value in [4] is on record as “CysRx accumulation”. Moreover, the “lipid oxidation in cystine-starved cells (C11-BODIPY)” value in series [5] is recorded as “significantly reduced”. In series [6] (setting [10]), the “ferroptosis in cystine-starved cells (cell viability)” value (shortened to “ferroptosis in cystine-starved cells”) is listed as “prevented”. In addition, in series [7] (setting [11]), the cysteine level entry is listed as “increase” and the cystine level result is on record as “decrease”. Moreover, in series [7] (cystine deprivation, BafilomycinA 50 nM 12 hrs), the “cytosolic cysteine level in cystine-starved cells” value is given as “partially restored”.
With `C/C=C/[C@H]1O[C@@](O)([C@@H](C)[C@H](O)[C@H](C)[C@H]2OC(=O)/C(OC)=C/C(C)=C/[C@@H](C)[C@@H](O)[C@@H](CC)[C@@H](O)[C@H](C)C/C(C)=C/C=C/[C@@H]2OC)C[C@@H](O[C@H]2C[C@@H](O)[C@H](OC(N)=O)[C@@H](C)O2)[C@@H]1C` [ConA, concanamycin A], in series [3], the “NRF2 activation (ARE Fluc reporter)” value is given as “prevented”. For the same molecule, the “lipid oxidation in cystine-starved cells (C11-BODIPY)” value in [5] was “significantly reduced”. In addition, the “ferroptosis in cystine-starved cells” value in series [6] (setting [10]) is “prevented”.
With `CC(C)Oc1ccc(C(=O)Cn2ccnc2)cc1-n1c(CN2CCN(C(=O)COc3ccc(Cl)cc3)CC2)nc2ccccc2c1=O` [IKE, imidazole ketone erastin], the tumor growth result in series [8] is reported as “suppressed”. Besides, the body weight entry in [9] is “weight loss”.
In the case of `O=C(COc1ccc(Cl)cc1)NC1CCC(NC(=O)COc2ccc(Cl)cc2)CC1` (stereo not drawn) [ISRIB], the “cystine shortage-induced ATF4 upregulation (western blotting)” value in series [1] (eIF2a(S/S) and eIF2a(A/A) MEF cells, 8 hrs amino acid starvation, ISRIB 100 nM) is given as “insensitive”.
For the molecule `CC(C)n1cnc2c(NCCc3ccc(O)cc3)nc(-c3csc4ccccc34)nc21` [SR1], in series [1] (MEF cells, SR1 200 nM or Indirubin 2 μM), the “ATF4 induction in cystine-starved cells” value was “significantly reduced”. For the same molecule, in [6] (MEF cells, cystine deprivation 24 hrs, SR1 200 nM or Indirubin 2 μM), the “ferroptosis of cystine-starved cells (cell viability)” value is reported as “promoted”.
On to `COC(=O)C[C@H](NC(=O)[C@H](C)NC(=O)[C@@H](NC(=O)OCc1ccccc1)C(C)C)C(=O)CF` [Z-VAD] (Cbz-Val-Ala-Asp(OMe)-CH2F), for which the “cell death under cystine restriction (cell viability)” value (“cell death under cystine restriction” below) in [6] (setting [12]) is “not”. The “reduced cell viability under full amino acid starvation” value in series [6] (MEF cells, 24 hrs full amino acid starvation, Z-VAD 20 μM) is “rescued”.
As for `O=C1O[C@H]([C@@H](O)CO)C(O)=C1O` [ascorbic acid], the “ATF4 induction upon cystine starvation” value in series [1] (MEF cells, 8 hrs cystine starvation, Ascorbic Acid 20 μM) is on record as “little effects”. In addition, in series [1] (MEF cells, HCA 10 mM, Ascorbic Acid 20 μM), the “ATF4 expression induced by homocysteic acid (HCA)” value is on record as “attenuated”.
For `C[C@@H]1C[C@@H]([C@H](O)CC2CC(=O)NC(=O)C2)C(=O)[C@@H](C)C1` [cycloheximide], the “ferroptosis induced by erastin and sulfasalazine (cell viability)” value in series [6] (MEF cells, 24 hrs Erastin 20 μM or Sulfsalazine 200 μM, Cycloheximide 50 μM) is recorded as “partially rescued”. For the same molecule, in series [6] (MEF cells, 24 hrs cystine deprivation, Cycloheximide 50 μM), the “increased ferroptosis susceptibility under cystine deprivation (cell viability, lipid ROS)” value is “prevented”. In [7] (12 hrs amino acid starvation, Cycloheximide 50 μM), the “intracellular cyst(e)ine levels” value is recorded as “largely restored”.
Take `NCCS` [cysteamine]: the “ATF4 induction under the cystine rich condition” value in series [1] (MEF cells, Cysteamine 0.5 mM, 12 hrs) was “pronounced ATF4 induction”. In series [5] (cystine deprivation, Cysteamine 0.5 mM for 18 hrs), the “lipid oxidation in cystine-starved cells” value is recorded as “eliminated”. For the same molecule, the “ferroptotic cell death of cells lacking cystinosin” value in series [6] (MEF cells with CTNS knockdown, 24 hrs cystine deprivation, Cysteamine 0.5 mM) is listed as “rescued”. For the same molecule, in series [6] (MEF cells, cystine deprivation, Cysteamine 0.5 mM for 24 hrs), the “ferroptosis in cystine-starved cells” value is recorded as “rescued”. For the same molecule, in series [7] (Cysteamine 0.5 mM, 12 hrs), the “cysteine in the cytosol” value is on record as “increase” and the lysosomal cystine level entry was “readily depleted”.
Consider `CCOC(=O)c1ccc(NC2CCCCC2)c(N)c1` [ferrostatin-1], for which, in series [6] (setting [12]), the “cell death under cystine restriction” value is listed as “prevented”.
`N[C@@H](CCS(=O)(=O)O)C(=O)O` [homocysteic acid]: the ATF4 expression entry in [1] (MEF cells, HCA 10 mM) was “induced”.
Turning to `CN1C(=O)C(Cc2c[nH]c3ccccc23)NC1=S` (stereo not drawn) [necrostatin, necrostatin-1], in series [6] (setting [12]), the “cell death under cystine restriction” value is “not”.
On to `O=C(O)c1cc(/N=N/c2ccc(S(=O)(=O)Nc3ccccn3)cc2)ccc1O` [sulfasalazine], for which the “susceptibility of cells lacking cystinosin (cell viability)” value in series [6] (MEF cells with CTNS knockdown, Erastin 20 μM, Sulfsalazine 200 μM) is “highly susceptible”. For the same molecule, the “ferroptosis (cell viability)” value in series [6] (MEF cells, 24 hrs, Erastin 20 μM, Sulfsalazine 200 μM) is “induced”.

The values above are taken from patent US20240287148A1, “ENGINEERED BIOMOLECULES FOR NUTRIENT REPROGRAMMING” (CORNELL UNIVERSITY, priority 2021, published 2024).
